Experimental data reported in patent US8569336B2, “Compounds for the treatment of inflammatory disorders” (priority 2008, dated 2013).
pIC50, pKi: −log10 of the molar value.

System: TNF-α production from human whole blood
Assay: Inhibition of TNF-α production from human whole blood (hWBA), LPS stimulated, ELISA
Format: cell-based
Settings: Homo sapiens, 3.5 h, human whole blood diluted 1:1, LPS stimulated, 3.5 h, TNF-α by ELISA; read-out: hWBA (IC50)

Row | Structure (SMILES) | pIC50
1 | COc1ccc2c(c1)C(=O)N(C[C@@]1(c3cc4nc(Nc5c(C)noc5C)ccc4o3)NC(=O)NC1=O)C2 [Compound 2133] | 6.34
2 | COc1ccc2c(c1)C(=O)N(C[C@@]1(c3cc4nc(-c5cccs5)ccc4o3)NC(=O)NC1=O)C2 [Compound 2162] | 5.85
3 | COc1ccc2c(c1)C(=O)N(C[C@@]1(c3cc4cc(CNCCN)ccc4o3)NC(=O)NC1=O)C2 [Compound 2179] | 6.42
4 | COCCN1CCN(c2ccc3oc([C@]4(CN5Cc6ccc(OC)cc6C5=O)NC(=O)NC4=O)cc3n2)CC1 [Compound 2160] | 6.48

Same assay, conditions: Homo sapiens, LPS-stimulated human whole blood, TNF-α by ELISA; read-out: hWBA (IC50)

Row | Structure (SMILES) | pIC50
5 | COc1ccc2c(c1)C(=O)N(CC1([C@H]3C[C@H](c4ccccc4)C3)NC(=O)NC1=O)C2 (some centres unmarked) [Compound 1915] | 4.00
6 | COc1ccc2c(c1F)C(=O)N(C[C@@]1(c3cc4cc(C5(C)NC(=O)NC5=O)c(C)cc4o3)NC(=O)NC1=O)C2 (some centres unmarked) [Compound 1306] | 6.38
7 | COC(=O)NCCNc1nc2cc([C@]3(CN4Cc5ccc(OC)c(F)c5C4=O)NC(=O)NC3=O)oc2cc1F [Compound 1319] | 6.60
8 | COC(=O)c1ccc2oc([C@]3(CN4Cc5ccc(OC)cc5C4=O)NC(=O)NC3=O)cc2n1 [Compound 1923] | 6.47
9 | COCCNC(=O)c1cnc2cc([C@]3(CN4Cc5ccc(OC)cc5C4=O)NC(=O)NC3=O)oc2c1 [Compound 1933] | 6.18
10 | COc1ccc2c(c1)C(=O)N(C[C@@]1(c3cc4cc(N5CCNC5=O)ncc4o3)NC(=O)NC1=O)C2 [Compound 307] | 6.28
11 | COc1ccc2c(c1)C(=O)N(C[C@@]1(c3cc4ncc(C(=NO)N5CCN(c6cnccn6)CC5)cc4o3)NC(=O)NC1=O)C2 [Compound 1935] | 6.26
12 | CCN1CCN(C(=NO)c2cnc3cc([C@]4(CN5Cc6ccc(OC)cc6C5=O)NC(=O)NC4=O)oc3c2)CC1 [Compound 1934] | 6.47
13 | CCN1CCN(c2ccc(O)c(-c3ccc([C@]4(CN5Cc6ccc(OC)cc6C5=O)NC(=O)NC4=O)cc3)n2)CC1 [Compound 902] | 5.82
14 | CCOC(=O)NCc1ccc2oc([C@]3(CN4Cc5ccc(OC)cc5C4=O)NC(=O)NC3=O)cc2c1 [Compound 324] | 5.77
15 | CCNC(=O)NCc1ccc2oc([C@]3(CN4Cc5ccc(OC)cc5C4=O)NC(=O)NC3=O)cc2c1 [Compound 325] | 5.70
16 | COc1ccc2c(c1)C(=O)N(C[C@@]1(c3cc4nc(NC(=O)c5cccnc5)ccc4o3)NC(=O)NC1=O)C2 [Compound 1947] | 6.27
17 | COc1ccc2c(c1)C(=O)N(C[C@@]1(c3cc4nc(-c5ccc(S(N)(=O)=O)cc5)ccc4o3)NC(=O)NC1=O)C2 [Compound 1528] | 5.57
18 | COc1ccc2c(c1)C(=O)N(C[C@@]1(c3cc4ncc(C(=O)NCCN(C)C)cc4o3)NC(=O)NC1=O)C2 [Compound 1932] | 6.10
19 | COC(=O)CCNc1nc2cc([C@]3(CN4Cc5ccc(OC)c(F)c5C4=O)NC(=O)NC3=O)oc2cc1F [Compound 1921] | 6.62
20 | CCN1CCN(c2cc3cc([C@]4(CN5Cc6ccc(OC)cc6C5=O)NC(=O)NC4=O)oc3cn2)CC1 [Compound 308] | 6.46
21 | CCOC(=O)[C@H]1CCC(=O)N1c1ccc2oc([C@]3(CN4Cc5ccc(OC)cc5C4=O)NC(=O)NC3=O)cc2n1 [Compound 1502] | 5.86
22 | COc1ccc2c(c1)C(=O)N(C[C@@]1(c3cc4cc(CNC(=O)N(C)C)ccc4o3)NC(=O)NC1=O)C2 [Compound 326] | 5.91

Same assay, conditions: Homo sapiens, human whole blood diluted 1:1, LPS stimulated, TNF-α by ELISA; read-out: hWBA (IC50)

Row | Structure (SMILES) | pIC50
23 | COc1ccc2c(c1)C(=O)N(C[C@@]1(c3cc4cnc(O)cc4o3)NC(=O)NC1=O)C2 [Compound 2312] | 6.66
24 | COCCNC(=O)c1cnc2cc([C@]3(CN4Cc5ccc(OC)cc5C4=O)NC(=O)NC3=O)oc2c1 [Compound 2467] | 6.18
25 | COc1ccc2c(c1)C(=O)N(C[C@@]1(c3ccc(C(N)=O)cc3)NC(=O)NC1=O)C2 [Compound 2403] | 5.70
26 | COc1ccc2c(c1)C(=O)N(C[C@@]1(c3cc4cc(/C(=N\O)N5CC[C@H](N(C)C)C5)ccc4o3)NC(=O)NC1=O)C2 [Compound 2488] | 6.49
27 | CCOC(=O)N1CCc2cc([C@]3(CN4Cc5ccc(OC)cc5C4=O)NC(=O)NC3=O)oc2C1 [Compound 2439] | 6.15
28 | CCNC(=O)Nc1ccc2oc([C@]3(CN4Cc5ccc(OC)cc5C4=O)NC(=O)NC3=O)cc2n1 [Compound 2316] | 6.17
29 | COc1ccc2c(c1)C(=O)N(C[C@@]1(c3cc4c(o3)CCN(C(=O)Nc3cccnc3)C4)NC(=O)NC1=O)C2 [Compound 2443] | ≤ 3.00
30 | COc1ccc2c(c1)C(=O)N(C[C@@]1(c3cc4ncc(C(=O)NCCN(C)C)cc4o3)NC(=O)NC1=O)C2 [Compound 2465] | 6.10
31 | COc1ccc2c(c1)C(=O)N(C[C@@]1(c3cc4c(o3)CCN(C(N)=O)C4)NC(=O)NC1=O)C2 [Compound 2440] | 6.19
32 | COc1ccc2c(c1)C(=O)N(C[C@@]1(c3cc4c(o3)CCN(C(=O)N(C)C)C4)NC(=O)NC1=O)C2 [Compound 2441] | 6.30
33 | COc1ccc2c(c1)C(=O)N(C[C@@]1(c3cc4nc(NC(=O)c5cccnc5)ccc4o3)NC(=O)NC1=O)C2 [Compound 2313] | 6.27
34 | CCNC(=O)N1CCc2oc([C@]3(CN4Cc5ccc(OC)cc5C4=O)NC(=O)NC3=O)cc2C1 [Compound 2442] | 6.51
35 | COc1ccc2c(c1F)C(=O)N(C[C@@]1(c3cc4cc5c(cc4o3)C(=O)NCCC5)NC(=O)NC1=O)C2 [Compound 2492] | 6.49
36 | COc1ccc2c(c1)C(=O)N(C[C@@]1(c3cc4nc(NS(C)(=O)=O)ccc4o3)NC(=O)NC1=O)C2 [Compound 2315] | 6.72
37 | COc1ccc2c(c1)C(=O)N(C[C@@]1(c3cc4nc(-c5ccc(S(N)(=O)=O)cc5)ccc4o3)NC(=O)NC1=O)C2 [Compound 2490] | 5.57
38 | COc1ccc2c(c1)C(=O)N(C[C@@]1(c3cc4c(o3)CCN(S(C)(=O)=O)C4)NC(=O)NC1=O)C2 [Compound 2438] | 6.30
39 | COc1ccc2c(c1)C(=O)N(C[C@@]1(c3cc4cnc(C#N)cc4o3)NC(=O)NC1=O)C2 [Compound 2444] | 6.12

Same assay, conditions: Homo sapiens, read-out: hWBA (IC50), LPS-stimulated human whole blood, TNF-α by ELISA

Row | Structure (SMILES) | pIC50
40 | COc1ccc2c(c1F)C(=O)N(C[C@@]1(c3cc4nc(C)c(-c5ccc(N)nc5)cc4o3)NC(=O)NC1=O)C2 [Compound 1919] | 6.51

Target: T1, purified catalytic domain of recombinant human TACE (rhTACEc) (Homo sapiens, UniProt P78536, N452Q/S266A)
T1 construct: 6xHis (C); made in house; host or cells: baculovirus/Hi5 insect cells
T1 sequence (P78536 215-477 S266A/N452Q): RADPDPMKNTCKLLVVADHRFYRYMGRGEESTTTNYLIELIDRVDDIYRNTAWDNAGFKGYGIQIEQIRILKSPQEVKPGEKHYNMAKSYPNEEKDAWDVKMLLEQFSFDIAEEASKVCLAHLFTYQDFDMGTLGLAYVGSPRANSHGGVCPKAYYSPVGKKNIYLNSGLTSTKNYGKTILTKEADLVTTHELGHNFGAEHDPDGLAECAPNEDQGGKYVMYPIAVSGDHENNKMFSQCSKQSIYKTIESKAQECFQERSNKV
Assay: TACE kinetic assay: cleavage of internally quenched peptide substrate TNF-FRET 2 (Ki)
Format: biochemical
Settings: Ki, TNF-FRET 2 substrate

Row | Structure (SMILES) | pKi
41 | COc1ccc2c(c1)C(=O)N(C[C@@]1(c3cc4nc(-c5cccs5)ccc4o3)NC(=O)NC1=O)C2 [Compound 2162] | 9.90
42 | CNC(=O)c1cnc2cc([C@]3(CN4Cc5ccc(OC)cc5C4=O)NC(=O)NC3=O)oc2c1 [Compound 2461] | 9.06
43 | CNC(=O)c1cnc2cc([C@]3(CN4Cc5ccc(OC)cc5C4=O)NC(=O)NC3=O)oc2c1 [Compound 1930] | 9.06

Same assay, conditions: TNF-FRET 2 substrate, read-out: Ki

Row | Structure (SMILES) | pKi
44 | COc1ccc2c(c1)C(=O)N(C[C@@]1(c3cc4cnc(O)cc4o3)NC(=O)NC1=O)C2 [Compound 2312] | 8.97
45 | COc1ccc2c(c1)C(=O)N(C[C@@]1(c3cc4nc(Nc5c(C)noc5C)ccc4o3)NC(=O)NC1=O)C2 [Compound 2133] | 9.20
46 | COc1ccc2c(c1)C(=O)N(CC1([C@H]3C[C@H](c4ccccc4)C3)NC(=O)NC1=O)C2 (some centres unmarked) [Compound 1915] | 8.00
47 | COCCNC(=O)c1cnc2cc([C@]3(CN4Cc5ccc(OC)cc5C4=O)NC(=O)NC3=O)oc2c1 [Compound 2467] | 9.14
48 | COc1ccc2c(c1)C(=O)N(C[C@@]1(c3ccc(C(N)=O)cc3)NC(=O)NC1=O)C2 [Compound 2403] | 8.89
49 | COc1ccc2c(c1)C(=O)N(C[C@@]1(c3cc4cc(CNCCN)ccc4o3)NC(=O)NC1=O)C2 [Compound 2179] | 9.15
50 | COc1ccc2c(c1F)C(=O)N(C[C@@]1(c3cc4cc(C5(C)NC(=O)NC5=O)c(C)cc4o3)NC(=O)NC1=O)C2 (some centres unmarked) [Compound 1306] | 8.85
51 | COc1ccc2c(c1)C(=O)N(C[C@@]1(c3cc4cc(/C(=N\O)N5CC[C@H](N(C)C)C5)ccc4o3)NC(=O)NC1=O)C2 [Compound 2488] | 9.10
52 | COc1ccc2c(c1F)C(=O)N(C[C@]1(c3ccco3)NC(=O)NC1=O)C2 [Compound 312] | 6.30
53 | COc1ccc2c(c1F)C(=O)N(C[C@@]1(c3cc4cc(-c5c(C)nn(C)c5C)c(F)cc4o3)NC(=O)NC1=O)C2 [Compound 1182] | 9.39
54 | COc1ccc2c(c1)C(=O)N(C[C@@]1(c3ccc(-c4ccc(F)c(C#N)c4)cc3)NC(=O)NC1=O)C2 [Compound 1506] | 8.19
55 | CCN1CCN(c2ccc3oc([C@@]4(CN5Cc6ccc(OCC7CC7)c(F)c6C5=O)NC(=O)NC4=O)cc3n2)CC1 [Compound 901] | 6.30
56 | O=C1NC(=O)C(CN2Cc3ccccc3C2=O)(c2ccccc2)N1 (centres unmarked) [Compound 1297] | 7.79
